Earlier results, collected in patent publication US20040166561A1, “Novel intein and uses thereof” (priority 2001, published 2004).

What was measured:
[1] = system: RecA intein from Mycobacterium tuberculosis; settings: 0.2 mM zinc (6parts/million); in vitro, splicing in trans
[2] = target: T1, naturally split DnaE intein from Synechocystis sp. PCC6803 (Synechocystis sp., UniProt P74750); settings: 0.2 mM zinc (6parts/million); in vitro, splicing in trans
T1 construct: by the naturally split DnaE intein from Synechocystis sp; PCC6803

SMILES: [Zn+2] [zinc]
- inhibition of protein splicing [1]: 90%
- inhibition of protein splicing [2]: 90%
